Data set [1] deals with RA metabolism in intact T47D cells. The data set is described as follows: Microcolumn assay for RA metabolism in intact T47D cells. Format: cell-based, human. As to the method:
RA metabolism was quantitatively determined using the microcolumn assay as described previously ([Krekels et al, 1997]). […] Cells were then washed twice with culture medium, harvested and resuspended at 4×10^6 cells ml^−1. An aliquot of this cell suspension (450 μl) was incubated for 90 min in the presence of 0.1 μM [11, 12-^3H(N)]RA, after which 2 ml acetonitrile was added. After centrifugation for 10 min at 780 g, the resulting deproteinized supernatant was acidified with 2.5 ml of 40 mM acetic acid and applied to a 3 ml C18 Bond Elut LRC column (Varian, Harbor City, CA, USA; pretreated with 4 ml distilled water) under a vacuum of 127 mmHg using VAC ELUT SPS-24 and the effluent was collected. The column was eluted with 1 ml 40% acetonitrile and the effluent was collected in the same vial. Radioactivity in the collected effluent, containing the polar metabolites, was determined in a Packard Tri-carb 4530 liquid scintillation analyzer. Optiphase ‘Hi Safe II’ (Wallac, Milton Keynes, UK) was used as a scintillator. Data are presented as mean±s.d. of three or four independent experiments. The IC50-values were calculated by non-linear regression analysis using SigmaPlot 4.01 software.

The target in the next data set is T1, CYP26A1 (Homo sapiens, UniProt O43174).
T1 construct: microsomes of T47D human breast cancer cells that were pretreated for 16 h with 1 μM RA to induce RA metabolism; endogenous in cells; host or cells: T47D human breast cancer cells, pretreated with 1 μM RA for 16 h; microsomal fraction
T1 sequence (O43174 1-497): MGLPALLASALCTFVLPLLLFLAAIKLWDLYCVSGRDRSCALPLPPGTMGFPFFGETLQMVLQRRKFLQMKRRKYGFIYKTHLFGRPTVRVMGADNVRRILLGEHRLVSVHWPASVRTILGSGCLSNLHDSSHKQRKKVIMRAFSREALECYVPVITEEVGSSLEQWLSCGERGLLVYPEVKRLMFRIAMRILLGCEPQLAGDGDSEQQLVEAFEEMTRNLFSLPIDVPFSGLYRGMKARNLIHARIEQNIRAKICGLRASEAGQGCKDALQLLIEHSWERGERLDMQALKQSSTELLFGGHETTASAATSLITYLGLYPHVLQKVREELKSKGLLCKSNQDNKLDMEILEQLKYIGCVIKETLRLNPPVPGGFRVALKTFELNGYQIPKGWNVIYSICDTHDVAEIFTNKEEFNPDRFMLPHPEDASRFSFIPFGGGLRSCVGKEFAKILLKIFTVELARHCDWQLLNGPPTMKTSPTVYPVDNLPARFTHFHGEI
The data set can be described thus: RA 4-hydroxylase in T47D human breast cancer microsomes. The format is biochemical.

The target in the next data set is T2, aromatase (CYP19) (Homo sapiens, UniProt P11511).
T2 construct: aromatase (CYP19) in human placental microsomes; from tissue; host or cells: human placenta, microsomes
T2 sequence (P11511 1-503): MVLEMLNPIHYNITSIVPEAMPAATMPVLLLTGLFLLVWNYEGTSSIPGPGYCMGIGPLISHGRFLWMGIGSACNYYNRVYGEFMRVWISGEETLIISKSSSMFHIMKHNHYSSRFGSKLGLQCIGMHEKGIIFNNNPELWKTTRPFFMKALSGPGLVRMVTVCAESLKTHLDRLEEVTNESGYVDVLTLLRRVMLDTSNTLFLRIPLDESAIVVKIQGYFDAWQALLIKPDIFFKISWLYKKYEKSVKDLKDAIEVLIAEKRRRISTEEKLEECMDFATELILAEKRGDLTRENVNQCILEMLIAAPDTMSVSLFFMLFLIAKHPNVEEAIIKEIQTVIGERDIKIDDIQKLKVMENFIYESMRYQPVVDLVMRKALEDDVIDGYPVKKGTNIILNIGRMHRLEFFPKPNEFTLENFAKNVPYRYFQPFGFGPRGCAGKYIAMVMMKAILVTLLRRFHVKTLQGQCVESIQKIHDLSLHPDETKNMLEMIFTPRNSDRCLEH
The data set can be described thus: Aromatase, conversion of androstenedione to estrone in human placental microsomes. Format: biochemical.

For another data set, the target named is T3, 17,20-lyase (CYP17) (Rattus norvegicus, UniProt P11715).
T3 construct: 17,20-lyase (CYP17) in rat testicular S10 fractions; from tissue; host or cells: rat testis, S10 fraction
T3 sequence (P11715 1-507): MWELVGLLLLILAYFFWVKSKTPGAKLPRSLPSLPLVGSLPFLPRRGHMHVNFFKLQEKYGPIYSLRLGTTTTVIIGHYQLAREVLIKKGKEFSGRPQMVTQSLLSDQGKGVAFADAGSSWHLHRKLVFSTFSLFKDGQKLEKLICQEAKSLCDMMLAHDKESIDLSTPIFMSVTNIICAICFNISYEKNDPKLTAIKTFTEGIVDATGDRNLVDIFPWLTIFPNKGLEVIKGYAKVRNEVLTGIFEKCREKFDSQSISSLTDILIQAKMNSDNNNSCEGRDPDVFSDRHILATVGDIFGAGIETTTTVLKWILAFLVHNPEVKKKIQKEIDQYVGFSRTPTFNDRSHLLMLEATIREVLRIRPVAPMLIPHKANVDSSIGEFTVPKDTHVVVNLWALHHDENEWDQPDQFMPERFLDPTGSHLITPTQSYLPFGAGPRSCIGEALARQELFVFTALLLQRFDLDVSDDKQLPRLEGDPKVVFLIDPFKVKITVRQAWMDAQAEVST
The data set can be described thus: 17,20-lyase in rat testicular S10 fraction. The format is biochemical.

Another data set concerns CYP2B1/2. The data set can be described thus: Testosterone 16β-hydroxylase in rat liver microsomes. Format: biochemical. The following applies: probe testosterone (16β-hydroxylation).
Data set [2] can be described thus: Blood hormone levels in rats treated with R116010. The format is in vivo. The following applies: 10 mg kg^−1 R116010.
The subject of data set [3] is androgen-independent rat prostatic Dunning R3327/PIF-1 carcinoma cells. More on the design: method as in Van Ginckel et al, 1999. The note with it: in vivo; ref Van Ginckel et al, 1999; cited from earlier work.
Another data set has as its system TA3-Ha mammary tumours. The data set is described as follows: TA3-Ha mammary carcinoma model.

Protocol for 17,20-lyase (CYP17): (§1) Metabolism of RA by CYP26A1 was measured in microsomes of T47D human breast cancer cells that were pretreated for 16 h with 1 μM RA to induce RA metabolism. Microsomes were prepared exactly as described by [Han and Choi (1996)], and RA metabolism was measured as described by [Van Wauwe et al (1994)]. The conversion of androstenedione to estrone by aromatase (CYP19) in human placental microsomes, the conversion of 17-hydroxy-20-dihydroprogesterone to testosterone by 17,20-lyase (CYP17) in rat testicular S10 fractions, and the 2α-, 7α-, 6β-, and 16β-hydroxylation of testosterone (CYP2C11, CYP2A1, CYP3A, CYP2B1/2) in rat liver microsomes were carried out as described ([Vanden Bossche et al, 1990]).
Protocol for CYP26A1: as §1
Protocol for CYP2B1/2: (§2) The conversion of androstenedione to estrone by aromatase (CYP19) in human placental microsomes, the conversion of 17-hydroxy-20-dihydroprogesterone to testosterone by 17,20-lyase (CYP17) in rat testicular S10 fractions, and the 2α-, 7α-, 6β-, and 16β-hydroxylation of testosterone (CYP2C11, CYP2A1, CYP3A, CYP2B1/2) in rat liver microsomes were carried out as described ([Vanden Bossche et al, 1990]).
Protocol for TA3-Ha mammary tumours: Cells (1.5×10^6) were injected intraperitoneally in syngeneic A/J mice. […] Each group consisted of 10 animals for experiments with R116010 and of six animals for experiments with RA. All treatments were performed by oral gavage. […] The control groups were given the vehicle 20% 4-OH-β-cyclodextrine in sterile saline. Mice were daily examined for adverse drug effects. At the end of the experiments, subcutaneous tumours were excised 24 h after the last treatment and weighed to validate the antitumoural effects of the treatment.
Data are represented as box plots showing median group value, 25/75th percentile, 10/90th percentile and outliers. Groups were statistically compared to the vehicle-treated groups using the Mann–Whitney U-test. Significance was defined at the level of P<0.05.
Protocol for aromatase (CYP19): as §2

`C[C@@H]([C@H](c1ccc(Nc2nc3ccccc3s2)cc1)n1ccnc1)N(C)C` [R116010, [S-(R*,R*)]-N-[4-[2-(dimethylamino)-1-(1H-imidazole-1-yl)propyl]-phenyl]-2-benzothiazolamine]: the IC50 in data set [1] (Homo sapiens, intact T47D cells pretreated 16 h with 1 μM RA, 0.1 μM [3H]RA, 90 min, read-out: IC50 inhibition of formation of polar [3H]RA metabolites (RA metabolism)) is 8.7 nM; against CYP26A1 it was 4 nM; against aromatase (CYP19) (Human placental microsomes), greater than 10 µM; against 17,20-lyase (CYP17), 250 nM; in the data set with CYP2B1/2 (Rat liver microsomes) it was greater than 10 µM. Also, the “fold more potent than liarozole-fumarate as inhibitor of RA metabolism” value in data set [1] (intact T47D cells) is “over 100 fold”. Further, the inhibition at 10 μM came to 12% at aromatase (CYP19) (10 μM R116010, human placental microsomes, read-out: percentage of inhibition, Aromatase (CYP19)) and 21% in the data set on CYP2B1/2 (10 μM R116010, rat liver microsomes, read-out: percentage of inhibition, Testosterone 16β-hydroxylase (CYP2B1/2)). Also, in data set [2], the “change in blood hormone levels” value was “no change”. In addition, in data set [3], the “growth of orthotopically implanted Dunning R3327/PIF-1 carcinoma cells” value was “inhibit the growth”. Further, the body weight decrease with TA3-Ha mammary tumours (R116010 5 mg kg^−1, mice) is reported as roughly 15%. Further, the toxicity findings result in the data set on TA3-Ha mammary tumours (at toxic dose: RA 5, R116010 5, liarozole fumarate 20 mg kg^−1) was “hair loss and bone fractures”. The same compound yielded a therapeutic window in the data set on TA3-Ha mammary tumours (maximum tolerated dose versus lowest active dose, TA3-Ha model) of 30 fold. In addition, the “dose at which toxicity was observed” value in the data set on TA3-Ha mammary tumours (mice, oral, twice daily, toxicity related to hypervitaminosis A) stood at 5 mg/kg. Further, in the data set with TA3-Ha mammary tumours (oral, twice daily), the “fold more potent than liarozole-fumarate in TA3-Ha model” value is reported as “approximately 60 fold”. Moreover, the “lowest active dose inhibiting TA3-Ha tumour growth” value with TA3-Ha mammary tumours (oral, twice daily, day 1 until day 21, tumour weight) is 0.16 mg/kg.

(Values after article PMC2375285, “Inhibition of all-TRANS-retinoic acid metabolism by R116010 induces antitumour activity” (British Journal of Cancer, 2002).)
